“Also recorded” adds a separate entry of the source.
Key:
[1] = design: key: ↑indicates an increase is reported; ↓ indicates that a decrease is reported; details: reported in the references of Table 6, cited from earlier work
[2] = metformin without FORMULA A
Method: They were started on metformin 500 mg twice a day and was instructed to measure their fasting blood sugar on a daily basis. Over the course of 7 days they were instructed to increase metformin to 1000 mg twice a day.

[3] = cited from earlier work

Compound: β-Glucan
- Function: GLP-1 [1]: ↑
- Function: LDL chol [1]: ↓
- Function: PYY [1]: ↑
- Function: ghrelin [1]: ↓
- Function: hunger [1]: ↓
- Function: satiety [1]: ↑

Compound: CN(C)C(=N)N=C(N)N [metformin]
- stools / diarrhea on metformin [2]: persistent watery stools; also recorded: Diarrhea
- weight loss ([3]; approximate): 2 to 3 kg
- incidence of diarrhea in diabetic patients taking the drug ([3]; compared to only 6% of diabetic patients not taking metformin): 20%

Compound: Inulin
- Function: TG ([1]; TG is triglyceride): ↓
- Function: GLP-1 [1]: ↑
- Function: PYY [1]: ↑
- Function: ghrelin [1]: ↓
- Function: satiety [1]: ↑

— patent US11213543B2, “Human gastrointestinal microbiome modulating composition and methods of use” (priority 2011, dated 2022)
